From ChEMBL document CHEMBL3784948, “Pharmacokinetics of diclofenac and five metabolites after single doses in healthy volunteers and after repeated doses in patients” (Xenobiotica, 1988)
One block for each compound: values may come before it.

Assays:
Assay type in all cases: ADME, organism-based
Homo sapiens [1] = assay: AUC (0 to infinity) in healthy volunteer (2 volunteers) assessed as 3'-hydroxy-4'-methoxy diclofenac at 100 mg, po administered as single dose by capillary column gas chromatographic method; set-up: dose 100 mg, route oral, time infinity; conditions: in vivo
Homo sapiens [2] = assay: Apparent elimination half life in healthy volunteer (3 volunteers) assessed as 3'-hydroxy diclofenac at 100 mg, po administered as single dose by capillary column gas chromatographic method; conditions: in vivo
[3] = Total drug excretion in healthy volunteer (3 volunteers) urine assessed as 4'-hydroxy diclofenac at 100 mg, po administered as single dose measured over 96 hrs by capillary column gas chromatographic method; conditions: human, in vivo
Homo sapiens [4] = assay: AUC (0 to infinity) in healthy volunteer (3 volunteers) assessed as 4'-hydroxy diclofenac at 100 mg, po administered as single dose by capillary column gas chromatographic method; set-up: dose 100 mg, route oral, time infinity; conditions: in vivo
Homo sapiens [5] = assay: AUC (0 to infinity) in healthy volunteer (3 volunteers) assessed as 4',5-dihydroxy diclofenac at 100 mg, po administered as single dose by capillary column gas chromatographic method; set-up: dose 100 mg, time infinity, route oral; conditions: in vivo
Homo sapiens [6] = assay: Apparent elimination half life in healthy volunteer (3 volunteers) assessed as 3'-hydroxy-4'-methoxy diclofenac at 100 mg, po administered as single dose by capillary column gas chromatographic method; conditions: in vivo
Homo sapiens [7] = assay: Cmax in healthy volunteer (3 volunteers) assessed as 4',5-dihydroxy diclofenac at 100 mg, po administered as single dose by capillary column gas chromatographic method; set-up: dose 100 mg, route oral; conditions: in vivo
[8] = Apparent elimination half life in healthy volunteer (3 volunteers) at 100 mg, po administered as single dose by capillary column gas chromatographic method; conditions: human, in vivo, read-out: betat1/2(app) (converted)
Homo sapiens [9] = assay: Tmax in healthy volunteer (3 volunteers) assessed as 4'-hydroxy diclofenac at 100 mg, po administered as single dose by capillary column gas chromatographic method; conditions: in vivo
Homo sapiens [10] = assay: Cmax in healthy volunteer (3 volunteers) assessed as 3'-hydroxy-4'-methoxy diclofenac at 100 mg, po administered as single dose by capillary column gas chromatographic method; set-up: dose 100 mg, route oral; conditions: in vivo
Homo sapiens [11] = assay: AUC (0 to 96 hrs) in healthy volunteer (3 volunteers) at 100 mg, po administered as single dose by capillary column gas chromatographic method; set-up: time < 96 hr, dose 100 mg, route oral; conditions: in vivo
Homo sapiens [12] = assay: AUC (0 to 96 hrs) in healthy volunteer (3 volunteers) assessed as 5-hydroxy diclofenac at 100 mg, po administered as single dose by capillary column gas chromatographic method; set-up: dose 100 mg, time < 96 hr, route oral; conditions: in vivo
Homo sapiens [13] = assay: Cmax in healthy volunteer (3 volunteers) assessed as 4'-hydroxy diclofenac at 100 mg, po administered as single dose by capillary column gas chromatographic method; set-up: dose 100 mg, route oral; conditions: in vivo
Homo sapiens [14] = assay: Cmax in healthy volunteer (3 volunteers) at 100 mg, po administered as single dose by capillary column gas chromatographic method; set-up: dose 100 mg, route oral; conditions: in vivo
[15] = Tmax in healthy volunteer (3 volunteers) at 100 mg, po administered as single dose by capillary column gas chromatographic method; conditions: human, in vivo
Homo sapiens [16] = assay: Apparent elimination half life in healthy volunteer (3 volunteers) assessed as 4',5-dihydroxy diclofenac at 100 mg, po administered as single dose by capillary column gas chromatographic method; conditions: in vivo
Homo sapiens [17] = assay: AUC (0 to 96 hrs) in healthy volunteer (3 volunteers) assessed as 4',5-dihydroxy diclofenac at 100 mg, po administered as single dose by capillary column gas chromatographic method; set-up: time < 96 hr, dose 100 mg, route oral; conditions: in vivo
Homo sapiens [18] = assay: AUC (0 to 96 hrs) in healthy volunteer (3 volunteers) assessed as 4'-hydroxy diclofenac at 100 mg, po administered as single dose by capillary column gas chromatographic method; set-up: time < 96 hr, dose 100 mg, route oral; conditions: in vivo
[19] = Total drug excretion in healthy volunteer (3 volunteers) urine assessed as 3'-hydroxy diclofenac at 100 mg, po administered as single dose measured over 96 hrs by capillary column gas chromatographic method; conditions: human, in vivo
[20] = Total drug excretion in healthy volunteer (3 volunteers) urine assessed as 3'-hydroxy-4'-methoxy diclofenac at 100 mg, po administered as single dose measured over 96 hrs by capillary column gas chromatographic method; conditions: human, in vivo
Homo sapiens [21] = assay: AUC (0 to infinity) in healthy volunteer (3 volunteers) at 100 mg, po administered as single dose by capillary column gas chromatographic method; set-up: dose 100 mg, time infinity, route oral; conditions: in vivo
Homo sapiens [22] = assay: Tmax in healthy volunteer (3 volunteers) assessed as 4',5-dihydroxy diclofenac at 100 mg, po administered as single dose by capillary column gas chromatographic method; conditions: in vivo
Homo sapiens [23] = assay: AUC (0 to 72 hrs) in healthy volunteer assessed as 3'-hydroxy-4'-methoxy diclofenac at 100 mg, po administered as single dose by capillary column gas chromatographic method; set-up: time < 72 hr, dose 100 mg, route oral; conditions: in vivo
Homo sapiens [24] = assay: Tmax in healthy volunteer (3 volunteers) assessed as 3'-hydroxy diclofenac at 100 mg, po administered as single dose by capillary column gas chromatographic method; conditions: in vivo
[25] = Total drug excretion in healthy volunteer (3 volunteers) urine assessed as 5-hydroxy diclofenac at 100 mg, po administered as single dose measured over 96 hrs by capillary column gas chromatographic method; conditions: human, in vivo
Homo sapiens [26] = assay: Apparent elimination half life in healthy volunteer (3 volunteers) assessed as 5-hydroxy diclofenac at 100 mg, po administered as single dose by capillary column gas chromatographic method; conditions: in vivo
Homo sapiens [27] = assay: Tmax in healthy volunteer (3 volunteers) assessed as 3'-hydroxy-4'-methoxy diclofenac at 100 mg, po administered as single dose by capillary column gas chromatographic method; conditions: in vivo
Homo sapiens [28] = assay: Apparent elimination half life in healthy volunteer (3 volunteers) assessed as 4'-hydroxy diclofenac at 100 mg, po administered as single dose by capillary column gas chromatographic method; conditions: in vivo
Homo sapiens [29] = assay: AUC (0 to infinity) in healthy volunteer (3 volunteers) assessed as 3'-hydroxy diclofenac at 100 mg, po administered as single dose by capillary column gas chromatographic method; set-up: dose 100 mg, time infinity, route oral; conditions: in vivo
Homo sapiens [30] = assay: AUC (0 to 96 hrs) in healthy volunteer (3 volunteers) assessed as 3'-hydroxy-4'-methoxy diclofenac at 100 mg, po administered as single dose by capillary column gas chromatographic method; set-up: dose 100 mg, time < 96 hr, route oral; conditions: in vivo
Homo sapiens [31] = assay: Cmax in healthy volunteer (3 volunteers) assessed as 3'-hydroxy diclofenac at 100 mg, po administered as single dose by capillary column gas chromatographic method; set-up: dose 100 mg, route oral; conditions: in vivo
[32] = Total drug excretion in healthy volunteer (3 volunteers) urine at 100 mg, po administered as single dose measured over 96 hrs by capillary column gas chromatographic method; conditions: human, in vivo
Homo sapiens [33] = assay: AUC (0 to infinity) in healthy volunteer (3 volunteers) assessed as 5-hydroxy diclofenac at 100 mg, po administered as single dose by capillary column gas chromatographic method; set-up: dose 100 mg, route oral, time infinity; conditions: in vivo
Homo sapiens [34] = assay: Cmax in healthy volunteer (3 volunteers) assessed as 5-hydroxy diclofenac at 100 mg, po administered as single dose by capillary column gas chromatographic method; set-up: dose 100 mg, route oral; conditions: in vivo
[35] = Total drug excretion in healthy volunteer (3 volunteers) urine assessed as 4',5-dihydroxy diclofenac at 100 mg, po administered as single dose measured over 96 hrs by capillary column gas chromatographic method; conditions: human, in vivo
Homo sapiens [36] = assay: AUC (0 to 96 hrs) in healthy volunteer (3 volunteers) assessed as 3'-hydroxy diclofenac at 100 mg, po administered as single dose by capillary column gas chromatographic method; set-up: dose 100 mg, time < 96 hr, route oral; conditions: in vivo
Homo sapiens [37] = assay: Tmax in healthy volunteer (3 volunteers) assessed as 5-hydroxy diclofenac at 100 mg, po administered as single dose by capillary column gas chromatographic method; conditions: in vivo
Plasma [38] = assay: Steady state trough plasma concentration in chronic polyarthritis patient (6 patients) assessed as 5-hydroxy diclofenac at 75 mg, po bid administered for 6 to 10 months by capillary column gas chromatographic method; conditions: human, in vivo
Plasma [39] = assay: Steady state trough plasma concentration in chronic polyarthritis patient (6 patients) assessed as 4',5-dihydroxy diclofenac at 75 mg, po bid administered for 6 to 10 months by capillary column gas chromatographic method; conditions: human, in vivo
Plasma [40] = assay: Steady state trough plasma concentration in chronic polyarthritis patient (6 patients) assessed as 3'-hydroxy diclofenac at 75 mg, po bid administered for 6 to 10 months by capillary column gas chromatographic method; conditions: human, in vivo
Plasma [41] = assay: Steady state trough plasma concentration in chronic polyarthritis patient (6 patients) at 75 mg, po bid administered for 6 to 10 months by capillary column gas chromatographic method; conditions: human, in vivo
Plasma [42] = assay: Steady state trough plasma concentration in chronic polyarthritis patient (6 patients) assessed as 4'-hydroxy diclofenac at 75 mg, po bid administered for 6 to 10 months by capillary column gas chromatographic method; conditions: human, in vivo
Plasma [43] = assay: Steady state trough plasma concentration in chronic polyarthritis patient (6 patients) assessed as 3'-hydroxy-4'-methoxy diclofenac at 75 mg, po bid administered for 6 to 10 months by capillary column gas chromatographic method; conditions: human, in vivo

AUC (Homo sapiens [1]): 61.82 nmol·h/g
betat1/2(app) (Homo sapiens [2]): 1.1 h
Drug excretion [3]: 9.92 %ID
AUC (Homo sapiens [4]): 2.43 nmol·h/g
AUC (Homo sapiens [5]): 1.46 nmol·h/g
betat1/2(app) (Homo sapiens [6]): 78 h
Cmax (Homo sapiens [7]): 0.44 nmol/g
half-life [8]: 60 min
Tmax (Homo sapiens [9]): 19.8 min
Cmax (Homo sapiens [10]): 0.49 nmol/g
AUC (Homo sapiens [11]): 6.05 nmol·h/g
AUC (Homo sapiens [12]): 0.58 nmol·h/g
Cmax (Homo sapiens [13]): 1.19 nmol/g
Cmax (Homo sapiens [14]): 9.73 nmol/g
Tmax [15]: 19.8 min
betat1/2(app) (Homo sapiens [16]): 2.6 h
AUC (Homo sapiens [17]): 1.46 nmol·h/g
AUC (Homo sapiens [18]): 2.43 nmol·h/g
Drug excretion [19]: 2.79 %ID
Drug excretion [20]: 1.3 %ID
AUC (Homo sapiens [21]): 6.05 nmol·h/g
Tmax (Homo sapiens [22]): 40.2 min
AUC (Homo sapiens [23]): 46.09 nmol·h/g
Tmax (Homo sapiens [24]): 19.8 min
Drug excretion [25]: 4.66 %ID
betat1/2(app) (Homo sapiens [26]): 1 h
Tmax (Homo sapiens [27]): 720 min
betat1/2(app) (Homo sapiens [28]): 2 h
AUC (Homo sapiens [29]): 1.71 nmol·h/g
AUC (Homo sapiens [30]): 35.22 nmol·h/g
Cmax (Homo sapiens [31]): 0.36 nmol/g
Drug excretion [32]: 4.45 %ID
AUC (Homo sapiens [33]): 0.58 nmol·h/g
Cmax (Homo sapiens [34]): 0.45 nmol/g
Drug excretion [35]: 5.86 %ID
AUC (Homo sapiens [36]): 1.71 nmol·h/g
Tmax (Homo sapiens [37]): 19.8 min
SMILES: O=C([O-])Cc1ccccc1Nc1c(Cl)cccc1Cl.[Na+] [DICLOFENAC SODIUM]

Cminss (Plasma [38]): 0.234 nmol/g
Cminss (Plasma [39]): 0.252 nmol/g
Cminss (Plasma [40]): 0.302 nmol/g
Cminss (Plasma [41]): 0.565 nmol/g
Cminss (Plasma [42]): 0.438 nmol/g
Cminss (Plasma [43]): 3.687 nmol/g
SMILES: Cc1nnc(SCC2=C(C(=O)O)N3C(=O)[C@@H](NC(=O)Cn4cc(Cl)c(=O)c(Cl)c4)[C@H]3SC2)s1 [CEFAZEDONE]
